Data taken from patent US9557338B2 (SIGNAL PHARMACEUTICALS, LLC, priority 2012, dated 2017).
Read-outs that look alike come from different tables or passages of the source.

Columns and labels:
Type in all cases: cell-based
Akt(T308) = test: Inhibition of Akt(T308) phosphorylation in cell lines; conditions: read-out: p-Akt(T308)
mTORC1 = biological target: T1, mTORC1 (Homo sapiens, UniProt P42345); test: Inhibition of mTORC1 measured by phosphorylation of pathway markers (FIG. 1); conditions: phosphorylation of pathway markers Akt, PRAS40, GSK-3β, p70S6, S6, 4-EBP1
T1 construct: endogenous in cells; host or cells: PC3, A549, HCT116, U-87 MG, MDA-MB-231, NCI-H23, HT-29
Excerpt: (§1) The activity of the TORC1 complex can be followed from the phosphorylation status of 4E-BP1(T46), a direct substrate of mTOR kinase and S6RP(S235/S236), a downstream substrate from mTOR. The activity of the TORC2 complex can be followed directly from the phosphorylation status of Akt(S473) and indirectly from the phosphorylation status of AKT substrates, GSK3β(S9) and PRAS40(T246). […] Full activation of Akt requires an additional phosphorylation on T308 that is done by PDK1 and is speculated to be co-dependent with the TORC2 phosphorylation of the Akt(S473).

mTORC2 = biological target: T2, mTORC2 (Homo sapiens, UniProt P42345); test: Inhibition of mTORC2 measured by phosphorylation of pathway markers (FIG. 1); conditions: phosphorylation of pathway markers Akt, PRAS40, GSK-3β, p70S6, S6, 4-EBP1
T2 construct: endogenous in cells; host or cells: PC3, A549, HCT116, U-87 MG, MDA-MB-231, NCI-H23, HT-29
Excerpt: as §1

p70S6K = test: Luminex multiplex assay, p70S6K phosphorylation in cell lysates
Phospho-GSK3β(S9) = test: Luminex multiplex assay, Phospho-GSK3β(S9)
Procedure, shortened: (§2)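 Cells (PC3; HCT-116, MDA-MB-231 and HT29 with 500 ng/mL recombinant human IGF-I for the final 10 min) treated with compound or rapamycin over a concentration range for 1 h at 37° C, 5% CO2. Lysates read by bead-based Luminex sandwich immunoassay, 3 h at room temperature, RPE anti-rabbit detection, quantified against phosphoprotein standard curves.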

Phospho-PRAS40(T246) = test: Luminex multiplex assay, Phospho-PRAS40(T246)
Procedure, shortened: as §2

U-87 MG = test: Growth inhibition (cell proliferation assay), U-87 MG; conditions: read-out: Compound 1 Growth Inhibition IC50
HT-29 = test: Growth inhibition (cell proliferation assay), HT-29; conditions: read-out: Compound 1 Growth Inhibition IC50
PC3 = test: Growth inhibition (cell proliferation assay), PC3; conditions: read-out: Compound 1 Growth Inhibition IC50
Phospho-4E-BP1(T46) = test: Luminex multiplex assay, Phospho-4E-BP1(T46); conditions: read-out: p-4E-BP1(T46)
Excerpt: Determination of Phospho-GSK3β(S9), Phospho-PRAS40(T246) and Phospho-4E-BP1(T46) and the Effect of Compound 1 or Rapamycin.
The multiplex Luminex assay format differs from conventional enzyme-linked immunosorbent assay (ELISA) in that the multiplex capture antibody is attached to a polystyrene bead whereas the ELISA capture antibody is attached to the microplate well. The use of the suspension bead-based technology enables the multiplexing capabilities of the Luminex assays. The xMAP® technology uses 5.6 micron polystyrene microspheres, which are internally dyed with red and infrared fluorophores of differing intensities. Each bead is given a unique number, or bead region, allowing differentiation of one bead from another. Beads covalently bound to different specific antibodies can be mixed in the same assay, utilizing a 96-well microplate format. At the completion of the sandwich immunoassay, beads can be read, using the Luminex 100™ or Luminex 200 detection system, in single-file by dual lasers for classification and quantification of each analyte. The Akt-Pathway Phospho 5-plex kit used was custom made and includes the ability to simultaneously measure p-GSK3β (S9), p-PRAS40(T246), and p-4E-BP1(T46).
Cells were plated at the required density. The cells were treated with either Compound 1 or rapamycin over a range of concentrations for 1 hour in 5% CO2 at 37° C. Compound 1 and rapamycin were used at the same concentrations as for the proliferation assay. As for the cell proliferation assay, a reference standard was included in the assay for PC3 cells and the coefficient of variation for assay of p-GSK3β(S9) was 37.8% (n=30), p-PRAS40(T246) was 27.8% (n=30) and for p4E-BP1(T46) was 13.5% (n=4). For three cell lines (HCT-116, MDA-MB-231 and HT29) in the assay for phosphorylation of GSK3β, PRAS40 and 4E-BP1, IGF-I stimulation (500 ng/mL, recombinant human IGF-I) for the last 10 min of incubation was used. The media was aspirated from the wells and the plate was placed on ice. Then 35 μL of Lysis Buffer was added to each well and incubated on ice for at least 30 minutes. During the incubation, the standard curve for each phosphoprotein was prepared. The standards provided were reconstituted and serial dilutions were prepared according to the manufacturer's instructions. At the end of the cell lysis step, […] of the lysate was transferred to a V-bottom plate and spun at 4° C. at 2000 rpm for 5 minutes. Both the 1× Luminex bead and 1× detector antibody solutions were prepared during this time. The 1× bead solution was vortexed and 25 μL was added into each well of a black round bottom plate. Then 50 μL of the 1× detector antibody was added to each well. Fifty microliters (50 μL) of the prepared standards were added to the designated wells. Then 25 μL of the assay diluent was added to each well designated for the compound-treated cell lysates. At the end of the spin, 25 μL of cell lysate was added to the corresponding wells of the black assay plate. The assay plate was covered with the white plate lid and incubated for 3 hours at room temperature on an orbital shaker.
Approximately 10-15 minutes prior to the end of the first incubation, the secondary antibody solution was prepared according to the vendor's protocol. Goat anti-rabbit R-phycoerythrin red fluorescent protein (RPE) supplied as a 10× concentrate was diluted to generate a 1× goat anti-rabbit RPE stock. The 96-well filter plate was pre-wet with 200 μL of 1× Working wash solution. At the end of the 3 hour incubation, a multichannel pipette was used to transfer the entire contents from each assay well into the wells of the filter plate. The liquid from the wells was removed by aspiration with the vacuum manifold. Then 200 μL of 1× Working wash solution was added into each well. The wash solution was aspirated using the vacuum manifold after 15-30 seconds. This wash step was repeated one time. The bottom of the plate was blotted on clean paper towels to remove residual liquid. […]

HCT116 = test: Growth inhibition (cell proliferation assay), HCT116; conditions: read-out: Compound 1 Growth Inhibition IC50

## CO[C@H]1CC[C@H](N2C(=O)CNc3ncc(-c4ccc(C(C)(C)O)nc4)nc32)CC1 [Compound 1, 7-(6-(2-hydroxypropan-2-yl)pyridin-3-yl)-1-((1r,4r)-4-methoxycyclohexyl)-3,4-dihydropyrazino-[2,3-b]pyrazin-2(1H)-one]
Akt(T308); A549
  IC50: 640 nM
Akt(T308); HCT116
  IC50: 1950 nM
Akt(T308); HT-29
  IC50: 240 nM
Akt(T308); PC3
  IC50: 130 nM
Akt(T308); U-87 MG
  IC50: 260 nM
mTORC1
  inhibition of mTORC1: inhibition
mTORC2
  inhibition of mTORC2: inhibition
p70S6K; HCT116 cell line, IGF, read-out: Luminex p70S6K (IGF)
  IC50: 191 nM
p70S6K; U87MG cell line, read-out: Luminex p70S6K
  IC50: 103 nM
Phospho-GSK3β(S9); HCT116, IGF-I stimulation, read-out: p-GSK3β (S9)
  IC50: 220 nM
Phospho-GSK3β(S9); HCT116 cell line, IGF, read-out: Luminex GSK-3β (IGF)
  IC50: 359 nM
Phospho-GSK3β(S9); HT-29, IGF-I stimulation, read-out: p-GSK3β (S9)
  IC50: > 2000 nM
Phospho-GSK3β(S9); NCI-H23, read-out: p-GSK3β (S9)
  IC50: > 2000 nM
Phospho-GSK3β(S9); PC3, read-out: p-GSK3β (S9)
  IC50: 230 nM
Phospho-GSK3β(S9); U87MG cell line, read-out: Luminex GSK-3β
  IC50: 281 nM
Phospho-GSK3β(S9); U-87 MG, read-out: p-GSK3β (S9)
  IC50: 280 nM
Phospho-PRAS40(T246); A549, read-out: p-PRAS40 (T246)
  IC50: 750 nM
Phospho-PRAS40(T246); HCT116, IGF-I stimulation, read-out: p-PRAS40 (T246)
  IC50: 430 nM
Phospho-PRAS40(T246); HCT116 cell line, IGF, read-out: Luminex PRAS40 (IGF)
  IC50: 430 nM
Phospho-PRAS40(T246); HT-29, IGF-I stimulation, read-out: p-PRAS40 (T246)
  IC50: 350 nM
Phospho-PRAS40(T246); MDA-MB-231, IGF-I stimulation, read-out: p-PRAS40 (T246)
  IC50: 280 nM
Phospho-PRAS40(T246); NCI-H23, read-out: p-PRAS40 (T246)
  IC50: 190 nM
Phospho-PRAS40(T246); PC3, read-out: p-PRAS40 (T246)
  IC50: 140 nM
Phospho-PRAS40(T246); U87MG cell line, read-out: Luminex PRAS40
  IC50: 362 nM
Phospho-PRAS40(T246); U-87 MG, read-out: p-PRAS40 (T246)
  IC50: 360 nM
U-87 MG
  IC50: 790 nM
HT-29
  IC50: > 20000 nM
PC3
  IC50: 110 nM
Phospho-4E-BP1(T46); A549
  IC50: 330 nM
Phospho-4E-BP1(T46); HCT116, IGF-I stimulation
  IC50: 390 nM
Phospho-4E-BP1(T46); HT-29, IGF-I stimulation
  IC50: 70 nM
Phospho-4E-BP1(T46); MDA-MB-231, IGF-I stimulation
  IC50: 120 nM
Phospho-4E-BP1(T46); NCI-H23
  IC50: 120 nM
Phospho-4E-BP1(T46); PC3
  IC50: 410 nM
Phospho-4E-BP1(T46); U-87 MG
  IC50: 1340 nM
HCT116
  IC50: 370 nM
